# Numbers after ± are expanded uncertainties.
# What was measured:
# [1] = 101.33 kPa, Liquid
# [2] = xn = mol fraction of the nth substance listed; details: 101.33 kPa, Liquid
smiles,measurement,setting,value
c1ccccc1 [benzene],mass density,[1]; 288.15 K,884.246 ± 0.31 kg/m3
same,mass density,[1]; 293.15 K,878.918 ± 0.32 kg/m3
same,mass density,[1]; 298.15 K,873.582 ± 0.32 kg/m3
same,mass density,[1]; 303.15 K,868.233 ± 0.33 kg/m3
same,mass density,[1]; 308.15 K,862.871 ± 0.34 kg/m3
same,mass density,[1]; 313.15 K,857.498 ± 0.35 kg/m3
c1ccccc1 [benzene] + ClC(Cl)Cl,mass density,"[2]; 288.15 K, x2 = 0",884.246 ± 0.31 kg/m3
same,mass density,"[2]; 293.15 K, x2 = 0",878.918 ± 0.32 kg/m3
same,mass density,"[2]; 298.15 K, x2 = 0",873.582 ± 0.32 kg/m3
same,mass density,"[2]; 303.15 K, x2 = 0",868.233 ± 0.33 kg/m3
same,mass density,"[2]; 308.15 K, x2 = 0",862.871 ± 0.34 kg/m3
same,mass density,"[2]; 313.15 K, x2 = 0",857.498 ± 0.35 kg/m3
CCO [ethanol] + ClC(Cl)Cl,mass density,"[2]; 288.15 K, x1 = 1",793.721 ± 0.45 kg/m3
same,mass density,"[2]; 293.15 K, x1 = 1",789.454 ± 0.46 kg/m3
same,mass density,"[2]; 298.15 K, x1 = 1",785.164 ± 0.47 kg/m3
same,mass density,"[2]; 303.15 K, x1 = 1",780.853 ± 0.47 kg/m3
same,mass density,"[2]; 308.15 K, x1 = 1",776.51 ± 0.48 kg/m3
same,mass density,"[2]; 313.15 K, x1 = 1",772.138 ± 0.48 kg/m3
ClC(Cl)Cl [trichloromethane] + c1ccccc1,mass density,"[2]; 288.15 K, x1 = 0.1001",939.224 ± 0.25 kg/m3
same,mass density,"[2]; 288.15 K, x1 = 0.2",995.529 ± 0.18 kg/m3
same,mass density,"[2]; 288.15 K, x1 = 0.3072",1057.3 ± 0.25 kg/m3
same,mass density,"[2]; 288.15 K, x1 = 0.3995",1111.96 ± 0.33 kg/m3
same,mass density,"[2]; 288.15 K, x1 = 0.4997",1172.45 ± 0.42 kg/m3
same,mass density,"[2]; 288.15 K, x1 = 0.6",1234.48 ± 0.52 kg/m3
same,mass density,"[2]; 288.15 K, x1 = 0.6652",1275.68 ± 0.58 kg/m3
same,mass density,"[2]; 288.15 K, x1 = 0.7991",1362.32 ± 0.71 kg/m3
same,mass density,"[2]; 288.15 K, x1 = 0.8009",1363.45 ± 0.72 kg/m3
same,mass density,"[2]; 288.15 K, x1 = 0.9",1429.59 ± 0.82 kg/m3
same,mass density,"[2]; 288.15 K, x1 = 1",1498.08 ± 0.92 kg/m3
same,mass density,"[2]; 293.15 K, x1 = 0.1001",933.584 ± 0.26 kg/m3
same,mass density,"[2]; 293.15 K, x1 = 0.2",989.568 ± 0.18 kg/m3
same,mass density,"[2]; 293.15 K, x1 = 0.3072",1050.96 ± 0.24 kg/m3
same,mass density,"[2]; 293.15 K, x1 = 0.3995",1105.29 ± 0.32 kg/m3
same,mass density,"[2]; 293.15 K, x1 = 0.4997",1165.38 ± 0.41 kg/m3
same,mass density,"[2]; 293.15 K, x1 = 0.6",1226.99 ± 0.5 kg/m3
same,mass density,"[2]; 293.15 K, x1 = 0.6652",1267.9 ± 0.57 kg/m3
same,mass density,"[2]; 293.15 K, x1 = 0.7991",1353.91 ± 0.7 kg/m3
same,mass density,"[2]; 293.15 K, x1 = 0.8009",1355.03 ± 0.7 kg/m3
same,mass density,"[2]; 293.15 K, x1 = 0.9",1420.68 ± 0.81 kg/m3
same,mass density,"[2]; 293.15 K, x1 = 1",1488.64 ± 0.91 kg/m3
same,mass density,"[2]; 298.15 K, x1 = 0.1001",927.935 ± 0.26 kg/m3
same,mass density,"[2]; 298.15 K, x1 = 0.2",983.589 ± 0.19 kg/m3
same,mass density,"[2]; 298.15 K, x1 = 0.3072",1044.61 ± 0.23 kg/m3
same,mass density,"[2]; 298.15 K, x1 = 0.3995",1098.58 ± 0.31 kg/m3
same,mass density,"[2]; 298.15 K, x1 = 0.4997",1158.28 ± 0.4 kg/m3
same,mass density,"[2]; 298.15 K, x1 = 0.6",1219.47 ± 0.49 kg/m3
same,mass density,"[2]; 298.15 K, x1 = 0.6652",1260.09 ± 0.56 kg/m3
same,mass density,"[2]; 298.15 K, x1 = 0.7991",1345.46 ± 0.69 kg/m3
same,mass density,"[2]; 298.15 K, x1 = 0.8009",1346.58 ± 0.69 kg/m3
same,mass density,"[2]; 298.15 K, x1 = 0.9",1411.71 ± 0.79 kg/m3
same,mass density,"[2]; 298.15 K, x1 = 1",1479.15 ± 0.89 kg/m3
same,mass density,"[2]; 303.15 K, x1 = 0.1001",922.271 ± 0.27 kg/m3
same,mass density,"[2]; 303.15 K, x1 = 0.2",977.59 ± 0.2 kg/m3
same,mass density,"[2]; 303.15 K, x1 = 0.3072",1038.23 ± 0.22 kg/m3
same,mass density,"[2]; 303.15 K, x1 = 0.3995",1091.85 ± 0.3 kg/m3
same,mass density,"[2]; 303.15 K, x1 = 0.4997",1151.15 ± 0.39 kg/m3
same,mass density,"[2]; 303.15 K, x1 = 0.6",1211.92 ± 0.48 kg/m3
same,mass density,"[2]; 303.15 K, x1 = 0.6652",1252.24 ± 0.54 kg/m3
same,mass density,"[2]; 303.15 K, x1 = 0.7991",1336.97 ± 0.68 kg/m3
same,mass density,"[2]; 303.15 K, x1 = 0.8009",1338.09 ± 0.68 kg/m3
same,mass density,"[2]; 303.15 K, x1 = 0.9",1402.7 ± 0.78 kg/m3
same,mass density,"[2]; 303.15 K, x1 = 1",1469.61 ± 0.88 kg/m3
same,mass density,"[2]; 308.15 K, x1 = 0.1001",916.586 ± 0.28 kg/m3
same,mass density,"[2]; 308.15 K, x1 = 0.2",971.567 ± 0.21 kg/m3
same,mass density,"[2]; 308.15 K, x1 = 0.3072",1031.82 ± 0.21 kg/m3
same,mass density,"[2]; 308.15 K, x1 = 0.3995",1085.08 ± 0.29 kg/m3
same,mass density,"[2]; 308.15 K, x1 = 0.4997",1143.98 ± 0.38 kg/m3
same,mass density,"[2]; 308.15 K, x1 = 0.6",1204.33 ± 0.47 kg/m3
same,mass density,"[2]; 308.15 K, x1 = 0.6652",1244.34 ± 0.53 kg/m3
same,mass density,"[2]; 308.15 K, x1 = 0.7991",1328.42 ± 0.66 kg/m3
same,mass density,"[2]; 308.15 K, x1 = 0.8009",1329.56 ± 0.66 kg/m3
same,mass density,"[2]; 308.15 K, x1 = 0.9",1393.63 ± 0.77 kg/m3
same,mass density,"[2]; 308.15 K, x1 = 1",1460.03 ± 0.86 kg/m3
same,mass density,"[2]; 313.15 K, x1 = 0.1001",910.883 ± 0.29 kg/m3
same,mass density,"[2]; 313.15 K, x1 = 0.2",965.527 ± 0.21 kg/m3
same,mass density,"[2]; 313.15 K, x1 = 0.3072",1025.38 ± 0.2 kg/m3
same,mass density,"[2]; 313.15 K, x1 = 0.3995",1078.27 ± 0.28 kg/m3
same,mass density,"[2]; 313.15 K, x1 = 0.4997",1136.78 ± 0.36 kg/m3
same,mass density,"[2]; 313.15 K, x1 = 0.6",1196.74 ± 0.46 kg/m3
same,mass density,"[2]; 313.15 K, x1 = 0.6652",1236.41 ± 0.52 kg/m3
same,mass density,"[2]; 313.15 K, x1 = 0.7991",1319.82 ± 0.65 kg/m3
same,mass density,"[2]; 313.15 K, x1 = 0.8009",1321.04 ± 0.65 kg/m3
same,mass density,"[2]; 313.15 K, x1 = 0.9",1384.52 ± 0.75 kg/m3
same,mass density,"[2]; 313.15 K, x1 = 1",1450.41 ± 0.85 kg/m3
CCO [ethanol],mass density,[1]; 288.15 K,793.721 ± 0.45 kg/m3
same,mass density,[1]; 293.15 K,789.454 ± 0.46 kg/m3
same,mass density,[1]; 298.15 K,785.164 ± 0.47 kg/m3
same,mass density,[1]; 303.15 K,780.853 ± 0.47 kg/m3
same,mass density,[1]; 308.15 K,776.51 ± 0.48 kg/m3
same,mass density,[1]; 313.15 K,772.138 ± 0.48 kg/m3
ClC(Cl)Cl [trichloromethane],mass density,[1]; 288.15 K,1498.08 ± 0.92 kg/m3
same,mass density,[1]; 293.15 K,1488.64 ± 0.91 kg/m3
same,mass density,[1]; 298.15 K,1479.15 ± 0.89 kg/m3
same,mass density,[1]; 303.15 K,1469.61 ± 0.88 kg/m3
same,mass density,[1]; 308.15 K,1460.03 ± 0.86 kg/m3
same,mass density,[1]; 313.15 K,1450.41 ± 0.85 kg/m3
